target: T1, recombinant human pancreatic GLK (Homo sapiens, UniProt P35557); assay: biochemical
T1 sequence (P35557 1-465): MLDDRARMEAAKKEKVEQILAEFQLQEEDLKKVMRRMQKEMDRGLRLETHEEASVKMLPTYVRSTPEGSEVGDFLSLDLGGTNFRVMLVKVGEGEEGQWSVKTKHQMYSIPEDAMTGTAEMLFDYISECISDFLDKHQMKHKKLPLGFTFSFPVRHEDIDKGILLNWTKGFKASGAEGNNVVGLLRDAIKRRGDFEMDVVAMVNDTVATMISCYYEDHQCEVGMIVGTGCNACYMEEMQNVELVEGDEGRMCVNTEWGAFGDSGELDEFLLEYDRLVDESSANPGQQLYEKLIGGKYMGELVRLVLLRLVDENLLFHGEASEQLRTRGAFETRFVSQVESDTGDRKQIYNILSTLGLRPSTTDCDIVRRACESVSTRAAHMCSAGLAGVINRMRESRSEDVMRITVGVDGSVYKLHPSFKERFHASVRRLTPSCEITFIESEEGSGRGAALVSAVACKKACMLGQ

Going from `CCOC[C@H](Oc1ncnc2c1cnn2-c1ncccc1Cl)C(=O)Nc1ccc(Cl)cn1` [Example 127g, (2S)—N-(5-chloro-2-pyridyl)-2-[1-(3-chloro-2-pyridyl)pyrazolo[4,5-e]pyrimidin-4-yl]oxy-3-ethoxy-propanamide] to `O=C(Nc1ccc(Cl)cn1)[C@H](COCCO)Oc1ncnc2c1cnn2-c1ncccc1Cl` [Example 163, (2S)—N-(5-chloropyridin-2-yl)-2-(1-(3-chloropyridin-2-yl)-1H-pyrazolo[3,4-d]pyrimidin-4-yloxy)-3-(2-hydroxyethoxy)propanamide], the EC50 rises from 300 nM to 580 nM (1.9-fold). The first is the more potent here.

Compared with `COCC[C@H](Oc1ncnc2c1cnn2-c1ccccc1C)C(=O)Nc1ccc(C)cn1` [Example 17, (S)-4-methoxy-2-{[1-(2-methylphenyl)-1H-pyrazolo[3,4-d]pyrimidin-4-yl]oxy}-N-(5-methylpyridin-2-yl)butanamide], `COCC[C@@H](Oc1ncnc2c1cnn2-c1ccccc1Cl)C(=O)Nc1ccc(C)cn1` [Example 20, (R)-2-{[1-(2-Chlorophenyl)-1H-pyrazolo[3,4-d]pyrimidin-4-yl]oxy}-4-methoxy-N-(5-methylpyridin-2-yl)butanamide] is 150-fold higher in EC50: 64 nM for the first, 9300 nM for the second.

Going from `COCC[C@H](Oc1ncnc2c1cnn2-c1ccccc1OC)C(=O)Nc1nc(C)cs1` [Example 37, (S)-4-methoxy-2-{[1-(2-methoxyphenyl)-1H-pyrazolo[3,4-d]pyrimidin-4-yl]oxy}-N-(4-methyl-1,3-thiazol-2-yl)butanamide] to `CCC(Oc1ncnc2c1cnn2-c1ccccc1OC)C(=O)Nc1ccc(C)cn1` (centres unmarked) [Example 42, 2-{[1-(2-Methoxyphenyl)-1H-pyrazolo[3,4-d]pyrimidin-4-yl]oxy}-N-(5-methylpyridin-2-yl)butanamide], the EC50 falls from 1300 nM to 410 nM (3.2-fold). The second is the more potent here.

`Cc1c(C#N)cccc1-n1ncc2c(O[C@@H](COCCO)C(=O)Nc3ccc(Cl)cn3)ncnc21` [Example 209, (2S)—N-(5-chloropyridin-2-yl)-2-(1-(3-cyano-2-methylphenyl)-1H-pyrazolo[3,4-d]pyrimidin-4-yloxy)-3-(2-hydroxyethoxy)propanamide] and `Cc1c(F)cccc1-n1ncc2c(O[C@@H](COCCO)C(=O)Nc3ccc(Cl)cn3)ncnc21` [Example 170, (2S)—N-(5-chloropyridin-2-yl)-2-[1-(3-fluoro-2-methylphenyl)pyrazolo[4,5-e]pyrimidin-4-yl]oxy-3-(2-hydroxyethoxy)propanamide] are the same in EC50: 1500 nM for the first, 1500 nM for the second.

First: Cc1ccc(NC(=O)[C@H](COCCO)Oc2ncnc3c2cnn3Cc2ccccc2)nc1 [Example 181, (S)-2-(1-benzyl-1H-pyrazolo[3,4-d]pyrimidin-4-yloxy)-3-(2-hydroxyethoxy)-N-(5-methylpyridin-2-yl)propanamide]
Second: COCC(Oc1ncnc2c1cnn2-c1ccccc1Cl)C(=O)Nc1ccc(C)cn1 (centres unmarked) [Example 1, 2-{[1-(2-chlorophenyl)-1H-pyrazolo[3,4-d]pyrimidin-4-yl]oxy}-3-methoxy-N-(5-methylpyridin-2-yl)propanamide]
The EC50 of the first is 5.3-fold higher: 3300 nM for the first, 620 nM for the second. The second is the more potent here.

Compared with `COCC[C@@H](Oc1ncnc2c1cnn2-c1cccc(C)c1)C(=O)Nc1ccc(C)cn1` [Example 32, (R)-4-Methoxy-2-{[1-(3-methylphenyl)-1H-pyrazolo[3,4-d]pyrimidin-4-yl]oxy}-N-(5-methylpyridin-2-yl)butanamide], `COCCC(Oc1ncnc2c1cnn2-c1ccc(F)cc1F)C(=O)Nc1ccc(C)cn1` (centres unmarked) [Example 25, 2-{[1-(2,4-Difluorophenyl)-1H-pyrazolo[3,4-d]pyrimidin-4-yl]oxy}-4-methoxy-N-(5-methylpyridin-2-yl)butanamide] is lower in EC50: at least 100000 nM for the first, 1200 nM for the second. The second is the more potent here.

First: Cc1cnc(NC(=O)[C@H](COC(C)C)Oc2ncnc3c2cnn3-c2nccnc2C)cn1 [Example 106, (2S)-3-Isopropoxy-N-(5-methylpyrazin-2-yl)-2-(1-(3-methylpyrazin-2-yl)-1H-pyrazolo[3,4-d]pyrimidin-4-yloxy)propanamide]
Second: Cc1cnc(NC(=O)[C@H](COC(C)C)Oc2ncnc3c2cnn3-c2ncccc2Cl)cn1 [Example 92, (2S)-2-(1-(3-chloropyridin-2-yl)-1H-pyrazolo[3,4-d]pyrimidin-4-yloxy)-3-isopropoxy-N-(5-methylpyrazin-2-yl)propanamide]
The EC50 of the first is 16-fold higher: 6900 nM for the first, 420 nM for the second. The second is the more potent here.

Going from `Cc1ccc(NC(=O)[C@H](Oc2ncnc3c2cnn3-c2ccccc2Cl)C(C)C)nc1` [Example 85, (2R)-2-(1-(2-chlorophenyl)-1H-pyrazolo[3,4-d]pyrimidin-4-yloxy)-3-methyl-N-(5-methylpyridin-2-yl)butanamide] to `Cc1ccc(NC(=O)C(CCC(N)=O)Oc2ncnc3c2cnn3-c2ccccc2Cl)nc1` (centres unmarked) [Example 50, 2-{[1-(2-chlorophenyl)-1H-pyrazolo[3,4-d]pyrimidin-4-yl]oxy}-N1-(5-methylpyridin-2-yl)pentanediamide], the EC50 falls from 9500 nM to 590 nM (16-fold). The second is the more potent here.

First: Cc1c(Cl)cccc1-n1ncc2c(O[C@@H](COCCO)C(=O)Nc3ccc(C#N)cn3)ncnc21 [Example 166, (2S)-2-[1-(3-chloro-2-methylphenyl)pyrazolo[4,5-e]pyrimidin-4-yl]oxy-N-(5-cyanopyridin-2-yl)-3-(2-hydroxyethoxy)propanamide]
Second: CCOC[C@H](Oc1ncnc2c1nnn2-c1ccccc1Cl)C(=O)Nc1ccc(C#N)cn1 [Example 197, (2S)-2-(3-(2-chlorophenyl)-3H-[1,2,3]triazolo[4,5-d]pyrimidin-7-yloxy)-N-(5-cyanopyridin-2-yl)-3-ethoxypropanamide]
The EC50 of the first is 4.8-fold higher: 2900 nM for the first, 600 nM for the second.

Compared with `Cc1cnc(NC(=O)[C@H](COC2CCC2)Oc2ncnc3c2cnn3-c2ccccc2Cl)cn1` [Example 156, (2S)-2-(1-(2-chlorophenyl)-1H-pyrazolo[3,4-d]pyrimidin-4-yloxy)-3-cyclobutoxy-N-(5-methylpyrazin-2-yl)propanamide], `Cc1ccc(NC(=O)[C@H](CN2CC(O)C2)Oc2ncnc3c2cnn3-c2ccccc2Cl)nc1` [Example 205, (2S)-2-(1-(2-chlorophenyl)-1H-pyrazolo[3,4-d]pyrimidin-4-yloxy)-3-(3-hydroxyazetidin-1-yl)-N-(5-methylpyridin-2-yl)propanamide] is 2.8-fold higher in EC50: 87 nM for the first, 240 nM for the second. The first is the more potent here.

Compared with `Cc1cnc(NC(=O)C(COC(C)C)Oc2ncnc3c2cnn3-c2ccccc2Cl)s1` (centres unmarked) [Example 111, 2-[1-(2-chlorophenyl)pyrazolo[4,5-e]pyrimidin-4-yl]oxy-3-isopropoxy-N-(5-methylthiazol-2-yl)propanamide], `CC(C)OCC(Oc1ncnc2c1cnn2-c1ccccc1Cl)C(=O)Nc1ncns1` (centres unmarked) [Example 114, 2-[1-(2-chlorophenyl)pyrazolo[4,5-e]pyrimidin-4-yl]oxy-3-isopropoxy-N-(1,2,4-thiadiazol-5-yl)propanamide] is 6.4-fold higher in EC50: 330 nM for the first, 2100 nM for the second. The first is the more potent here.

Compared with `Cc1ccc(NC(=O)[C@H](CCO)Oc2ncnc3c2cnn3-c2ncccc2Cl)nc1` [Example 143, (2S)-2-[1-(3-chloro-2-pyridyl)pyrazolo[4,5-e]pyrimidin-4-yl]oxy-4-hydroxy-N-(5-methyl-2-pyridyl)butanamide], `O=C(Nc1ccccn1)[C@H](CCO)Oc1ncnc2c1cnn2-c1ncccc1Cl` [Example 143c, (2S)-2-[1-(3-chloro-2-pyridyl)pyrazolo[4,5-e]pyrimidin-4-yl]oxy-4-hydroxy-N-(2-pyridyl)butanamide] is 3.4-fold higher in EC50: 180 nM for the first, 610 nM for the second.

`O=C(Nc1ccccn1)[C@H](CN1CC(O)C1)Oc1ncnc2c1cnn2-c1ccccc1Cl` [Example 225, (2S)-2-[1-(2-chlorophenyl)pyrazolo[3,4-d]pyrimidin-4-yl]oxy-3-(3-hydroxyazetidin-1-yl)-N-(2-pyridyl)propanamide] and `N#Cc1ccc(NC(=O)[C@H](CN2CC(O)C2)Oc2ncnc3c2cnn3-c2c(Cl)cccc2Cl)nc1` [Example 234, (2S)—N-(5-cyano-2-pyridyl)-2-[1-(2,6-dichlorophenyl)pyrazolo[3,4-d]pyrimidin-4-yl]oxy-3-(3-hydroxyazetidin-1-yl)propanamide] are within 1.5-fold of each other in EC50: 220 nM for the first, 210 nM for the second.

Compared with `CC(C)OC[C@H](Oc1ncnc2c1cnn2-c1ncccc1Cl)C(=O)Nc1ccc(C(=O)N(C)C)cn1` [Example 178, 6-((2S)-2-(1-(3-chloropyridin-2-yl)-1H-pyrazolo[3,4-d]pyrimidin-4-yloxy)-3-isopropoxypropanamido)-N,N-dimethylnicotinamide], `CC(C)OC[C@H](Oc1ncnc2c1cnn2-c1ncccc1Cl)C(=O)Nc1ccc(Cl)cn1` [Example 127i, (2S)—N-(5-chloro-2-pyridyl)-2-[1-(3-chloro-2-pyridyl)pyrazolo[4,5-e]pyrimidin-4-yl]oxy-3-isopropoxy-propanamide] is 12-fold lower in EC50: 4300 nM for the first, 360 nM for the second.

Going from `COc1ccccc1-n1ncc2c(OC(CCS(C)(=O)=O)C(=O)Nc3ccc(C)cn3)ncnc21` (centres unmarked) [Example 10, 2-{[1-(2-methoxyphenyl)-1H-pyrazolo[3,4-d]pyrimidin-4-yl]oxy}-N-(5-methylpyridin-2-yl)-4-(methylsulfonyl)butanamide] to `CC[C@@H](Oc1ncnc2c1cnn2-c1ccccc1OC)C(=O)Nc1ccc(C)cn1` [Example 43, (2R)-2-{[1-(2-Methoxyphenyl)-1H-pyrazolo[3,4-d]pyrimidin-4-yl]oxy}-N-(5-methylpyridin-2-yl)butanamide], the EC50 rises from 2700 nM to 4200 nM (1.6-fold).

Compared with `Cc1ccc(NC(=O)[C@H](COC(C)C)Oc2ncnc3c2cnn3-c2cnccc2C)nc1` [Example 148, (2S)-3-isopropoxy-N-(5-methyl-2-pyridyl)-2-[1-(4-methyl-3-pyridyl)pyrazolo[4,5-e]pyrimidin-4-yl]oxy-propanamide], `CC(C)OC[C@H](Oc1ncnc2c1cnn2-c1ncccc1Cl)C(=O)Nc1nc(C#N)cs1` [Example 127h, (2S)-2-[1-(3-chloro-2-pyridyl)pyrazolo[4,5-e]pyrimidin-4-yl]oxy-N-(4-cyanothiazol-2-yl)-3-isopropoxy-propanamide] is 6.9-fold higher in EC50: 930 nM for the first, 6400 nM for the second.

Source: US8143263B2, “Therapeutic agents” (Astrazeneca AB, priority 2008, dated 2012)
